# Where two headings read alike, the source gives them in different places.
# Tests used:
# [1] = molecular target: Tau enriched paired helical filaments (PHF) from human Alzheimer's disease (AD) brains (Homo sapiens, UniProt P10636); experiment: Assay 3: backscattering interferometry, dissociation constants (Kd); assay type: binding
# Excerpt: Assay 3 (Backscattering Interferometry):
# Determination of Dissociation Constants (Kd) of Compounds of this Invention
# Enrichment of Paired Helical Filaments (PHF's) from Human Alzheimer's Disease Brains
# For backscattering interferometry, Tau enriched paired helical filaments (PHF) from human Alzheimer's disease (AD) brains were used as a target. Due to the limited availability of tissues, to determine dissociation constants (Kd) of compounds of this invention to the target, two different batches of enriched PHF were used. These batches are identified as batch 6 and 7 and were prepared as follows.
# PHF batch number 6 was prepared starting from 25 g frontal cortical tissue from post-mortem brains of 25 Alzheimer's disease (AD) patients which were obtained from the London Tissue Bank. The mean age at death for the AD patients was 76 years (48% females). Brain samples were characterized for Braak disease stage (Braak and Braak, 1991), with most donors displaying a stage VI. The postmortem interval between death and brain dissection was between 6 and 65 h. Human brain homogenates were prepared by SB Drug Discovery (Glasgow, Scotland, UK) from the post-mortem cortical tissue of the 25 patients). Each tissue (1 g) was homogenized with a Dounce glass homogenizer in 1.5 mL 100 mM 2-(N-morpholino) ethane-sulfonic acid (MES) pH 6.8, 0.75 M NaCl, 1 mM EGTA, 0.5 mM MgSO4, 2 mM DTT containing protease inhibitors (Complete; Roche 11697498001). For each sample, two aliquots containing 0.5 g brain homogenates in 0.75 mL were shipped to AC Immune SA on dry ice and stored at −80° C. For the enrichment of PHF, 1 aliquot per donor corresponding to total 12.5 g of brain tissue were thawed on ice and then incubated at 4° C. for 20 min to depolymerize any residual microtubules. All samples were then pooled and transferred to three polycarbonate centrifuge bottles (16×76 mm; Beckman 355603).
# PHF batch number 7 was prepared starting from 32 g of parietal cortex tissue from post-mortem brain of one Alzheimer's disease (AD) patient was obtained from an external provider (Tissue Solution). The patient was a person who died for end stage AD. The brain sample was collected 5 h post-mortem and characterized for Braak disease stage (Braak and Braak, 1991) as stage VI. The method used for the PHF enrichment was modified from published procedures (Jicha et al., 1997; Rostagno and Ghiso, 2009). Around 16 g of the AD human brain was thawed on ice and homogenized with 50 ml of homogenization buffer [0.75 M NaCl in RAB buffer (100 mM 2-(N-morpholino) ethanesulfonic acid (MES), 1 mM EGTA, 0.5 mM MgSO4, 2 mM DTT, pH 6.8) supplemented with protease inhibitors (Complete; Roche 11697498001)] in a glass Dounce homogenizer. The homogenate was then incubated at 4° C. for 20 min to let depolymerize any residual microtubules, before being transferred into polycarbonate centrifuge bottles (16×76 mm; Beckman 355603). For both purifications, brain homogenates were then centrifuged at 11,000 g (12,700 RPM) in an ultracentrifuge (Beckman, XL100K) for 20 min at 4° C. using the pre-cooled 70.1 rotor (Beckman, 342184). Pellets were kept on ice. Supernatants were pooled into polycarbonate bottles and centrifuged again at 100,000 g (38,000 RPM) for 1 h at 4° C. in the 70.1 Ti rotor to isolate PHF-rich pellets, whereas soluble Tau remained in the supernatants. The pellets from the first and second centrifugations were resuspended in 120 mL of extraction buffer [10 mM Tris-HCl pH 7.4, 10% sucrose, 0.85 M NaCl, 1% protease inhibitor (Calbiochem 539131), 1 mM EGTA, 1% phosphatase inhibitor (Sigma P5726 and P0044)]. The solution was then transferred into polycarbonate centrifuge bottles (16×76 mm; Beckman 355603) and centrifuged at 15,000 g (14,800 RPM) in an ultracentrifuge (Beckman, XL100K) for 20 min at 4° C. using the 70.1 Ti rotor. […]
# [2] = test system: tau tangles/Aβ plaques on AD brain sections; experiment: Assay 1: direct staining of human Alzheimer's disease brain sections (fluorescence); assay type: binding; set-up: key to Direct staining of tau tangles/Aβ plaques on AD brain sections at 100 μM / Direct staining of tau tangles on AD brain sections at 100 μM / Direct staining of Aβ plaques on AD brain sections at 100 μM / Direct staining of tau tangles on AD brain sections (footnote a: at 250 μM): − (No); +++ (strong); ++ (good); + (weak); settings: for Direct staining of tau tangles on AD brain sections at 100 μM / Direct staining of tau tangles/Aβ plaques on AD brain sections at 100 μM: 100 μM compound; for Direct staining of tau tangles/Aβ plaques on AD brain sections at 100 μM: human AD brain sections, fluorescence, cell does not say tangles or plaques
# Outline: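 Compounds (100 μM, 50% aqueous ethanol, 20 min, RT, dark) applied directly to fixed […] frozen amygdala sections of Braak stage V-VI Alzheimer's brains. After washing and 0.1% Sudan Black treatment against autofluorescence, sections were imaged microscopically for fluorescent staining.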
# [3] = test system: tau tangles on AD brain section; experiment: Assay 1: displacement of RefA on human AD brain sections (fluorescence); assay type: binding; settings: for Selectivity (tau/Abeta): ratio of competition on tau tangles to competition on Aβ plaques
# Procedure: Direct Binding of Compounds of this Invention to Human Alzheimer's Disease Brain Sections and/or Displacement of RefA and Compound B
# Frozen sections with a thickness of […] from the amygdala of donors diagnosed with Braak stage V-VI Alzheimer's Disease (Braak, H.; Braak, E. Acta Neuropathol., 1991, 82, 239-259), were purchased from a commercial provider (Tissue Solutions) and kept at −80° C. until use.
# Displacement of RefA and Compound B
# Brain sections were mainly treated as described above. Test compounds were, however, incubated on the section at 250 μM in 50% ethanol for 20 min at room temperature, and then directly incubated with the fluorescent reference compounds RefA and Compound B, each at 1 μM in 50% ethanol for 20 min at room temperature. RefA and Compound B stainings were visualized using the 470 nm and 365 nm excitation filters, respectively. Images were acquired, and tangles and plaques quantified using the NIS-Element software. Only those compounds not directly staining tangles or plaques at the same wavelengths as RefA and Compound B were tested in the displacement assay.
# Structure of RefA (Tago et al., J. Label. Compd. Radiopharm. 2013, DOI: 10.1002/jlcr.3133)
# [4] = test system: Aβ plaques on AD brain section; experiment: Assay 1: displacement of Compound B on human AD brain sections (fluorescence); assay type: binding
# Procedure: Direct Binding of Compounds of this Invention to Human Alzheimer's Disease Brain Sections and/or Displacement of RefA and Compound B Frozen sections with a thickness of […] from the amygdala of donors diagnosed with Braak stage V-VI Alzheimer's Disease (Braak, H.; Braak, E. Acta Neuropathol., 1991, 82, 239-259), were purchased from a commercial provider (Tissue Solutions) and kept at -80° C. until use. Displacement of RefA and Compound B Brain sections were mainly treated as described above. Test compounds were, however, incubated on the section at 250 μM in 50% ethanol for 20 min at room temperature, and then directly incubated with the fluorescent reference compounds RefA and Compound B, each at 1 μM in 50% ethanol for 20 min at room temperature. RefA and Compound B stainings were visualized using the 470 nm and 365 nm excitation filters, respectively. Images were acquired, and tangles and plaques quantified using the NIS-Element software. Only those compounds not directly staining tangles or plaques at the same wavelengths as RefA and Compound B were tested in the displacement assay. Structure of Compound B (prepared by a similar procedure described for […] in WO2010/011964): […]
# AD brain-enriched PHF = AD brain-enriched PHF (Homo sapiens, UniProt P10636); experiment: Assay 2 (filter trap): [3H]RefA radio-binding competition assay and Ki on PHF; settings: [^3H]RefA 10 nM; for Ki: PHF diluted 1/80, compound 0.12 nM to 50 μM
# Chain of AD brain-enriched PHF (P10636 623-708 limits assumed): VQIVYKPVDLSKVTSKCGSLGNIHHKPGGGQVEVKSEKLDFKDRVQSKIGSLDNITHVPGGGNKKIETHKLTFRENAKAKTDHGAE
# Procedure: Displacement of [^3H]RefA by Compounds of this Invention
# 50 g of frontal lobe tissue from post-mortem brain of an Alzheimer's disease (AD) patient were obtained from the London Tissue Bank. The patient was a […] and died […]. The brain sample was collected 5 hours post-mortem and characterized for Braak disease stage (Braak, H.; Braak, E. Acta Neuropathol., 1991, 82, 239-259) as stage VI. For the enrichment of PHF's, around 15 g of the AD human brain was thawed on ice and homogenized with 50 ml of homogenization buffer [0.75 M NaCl in RAB buffer (100 mM 2-(N-morpholino) ethanesulfonic acid (MES), 1 mM EGTA, 0.5 mM MgSO4, 2 mM DTT, pH 6.8) supplemented with protease inhibitors (Complete; Roche 11697498001) in a glass Dounce homogenizer. The homogenate was then incubated at 4° C. for 20 min to let any residual microtubules depolymerize, before the homogenate was transferred into polycarbonate centrifuge bottles (16×76 mm; Beckman 355603) and centrifuged at 11,000 g (12,700 RPM) in an ultracentrifuge (Beckman, XL100K) for 20 min at 4° C. using the pre-cooled 70.1 rotor (Beckman, 342184). Pellets were kept on ice. Supernatants were pooled into polycarbonate bottles and centrifuged again at 100,000 g (38,000 RPM) for 1 h at 4° C. in the 70.1 Ti rotor to isolate PHF-rich pellets, whereas soluble tau remained in the supernatants. The pellets from the first and second centrifugations were re-suspended in 120 mL of extraction buffer [10 mM Tris-HCl pH 7.4, 10% sucrose, 0.85 M NaCl, 1% protease inhibitor (Calbiochem 539131), 1 mM EGTA, 1% phosphatase inhibitor (Sigma P5726 and P0044)]. The solution was then transferred into polycarbonate centrifuge bottles (16×76 mm; Beckman 355603) and centrifuged at 15,000 g (14,800 RPM) in an ultracentrifuge (Beckman, XL100K) for 20 min at 4° C. using the 70.1 Ti rotor. In the presence of 10% sucrose and at low speed centrifugation, most PHF remained in the supernatant whereas intact or fragmented NFTs and larger PHF aggregates were pelleted. The pellets were discarded. 20% Sarkosyl (Sigma L7414-10ML) was added to the supernatants to a final concentration of 1% and stirred at room temperature for 1 h. This solution was then centrifuged into polycarbonate bottles at 100,000 g (38,000 RPM) for 1 h at 4° C. in the 70.1 Ti rotor, and the pellets containing PHF-rich material were re-suspended in a total final volume of 1.5 mL of PBS, aliquoted and stored at −80° C.
# [^3H]RefA Radio-Binding Competition Assay
# AD brain-enriched PHF diluted 1/80 were incubated in the presence of [^3H]RefA at 10 nM and the example compounds of this invention at 2.5 μM (250× excess), for 45 minutes at 37° C. Samples were then analyzed by on GF/B filter plates as described above (in the section “[^3H]RefA radio-binding assay and determination of the dissociation constant (Kd)). Non-specific signal was determined again with an excess of un-labeled RefA and specific binding calculated by subtracting the non-specific signal from the total signal. Competition was calculated as percent, where 0% was defined as the specific binding in the presence of vehicle (2.8% DMSO in PBS) and 100% as the values obtained in the presence of excess cold RefA. Similar assays were performed to determine the competition of the cold compounds on [^3H]RefA on in vitro aggregated recombinant human tau or Abeta1-42 For both recombinant proteins, 20 μg/mL of aggregates were incubated with 10 nM of [^3H]RefA for recombinant human tau or 80 nM of [^3H]RefA for recombinant human Abeta1-42.
# Determination of the Binding Affinity (Ki)
# Samples were then analyzed on GF/B filter plates as described above and Ki values calculated using Prism V5 (GraphPad).
# [5] = PHF batch 7 (parietal cortex, one AD patient), read-out: [Kd] on PHF batch 7
# [6] = PHF batch 6 (pooled frontal cortex, 25 AD patients), read-out: [Kd] on PHF batch 6
# Chain of Tau enriched paired helical filaments (PHF) from human Alzheimer's disease (AD) brains (P10636 623-708 limits assumed): as above
Compound,"Kd [1, 5] [µM]",Direct staining of tau tangles on AD brain sections at 100 μM ([2]; tangles),"Kd [1, 6] [µM]",other results
Cn1c2ccncc2c2ccc(N3[C@@H]4CC[C@H]3C[C@H](F)C4)nc21 [Example 147],0.17 ± 0.04,++ (tangles),,
Cn1c2ccncc2c2ccc(Nc3cc(OCCF)ccn3)nc21 [Example 63],,,0.02 ± 0.003,
Cn1c2ccncc2c2ccc(Nc3cc(F)ccn3)nc21 [Example 51],0.26 ± 0.05,+++ (tangles),,
Cn1c2ccncc2c2ccc(N3CC4(CC(OCCF)C4)C3)nc21 [Example 154],0.27 ± 0.05,++ (tangles),,
Cn1c2cc[nH]c(=O)c2c2ccc(Nc3cccc(OCCF)c3)nc21 [Example 197],,+ (tangles),0.1 ± 0.015,
Cn1c2c(c3ccc(Nc4ccc(F)c(OCCF)c4)nc31)C(=O)NCC2 [Example 201],,,0.075 ± 0.012,Direct staining of tau tangles/Aβ plaques on AD brain sections at 100 μM [2]: −
Cn1c2c(c3ccc(Nc4cccc(OCCF)c4)nc31)C(=O)NCC2 [drawing 1063],,,0.046 ± 0.009,
Cn1c2ccncc2c2ccc(N3CCC[C@@H](F)C3)nc21 [Example 159],0.12 ± 0.02,+ (tangles),,
CN1CCc2c(c3ccc(Nc4ccc(F)cc4N4CCOCC4)nc3n2C)C1=O [Example 175],,,,"Competition on AD brain section tau tangles (1 μM RefA vs. 250 μM compound) [3]: 6%; Competition on AD brain section Aβ plaques (1 μM Compound B vs 250 μM compound) [4]: 0%; Direct staining of tau tangles/Aβ plaques on AD brain sections at 100 μM [2]: −; inhibition at 2.5 µM (AD brain-enriched PHF; compound 2.5 μM, no Ki determined): < 50%"
Cn1c2ccncc2c2ccc(Nc3cccc(OC(F)F)c3)nc21 [Example 4],,,,"Competition on AD brain section tau tangles (1 μM RefA vs. 250 μM compound) [3]: 91%; Selectivity (tau/Abeta) [3]: ~5.4 fold; Competition on AD brain section Aβ plaques (1 μM Compound B vs 250 μM compound) [4]: 17%; Direct staining of tau tangles on AD brain sections (footnote a: at 250 μM) ([2]; 250 μM compound, tangles): + (tangles)^a; Ki (AD brain-enriched PHF): 0.0033 µM"
Cn1c2ccncc2c2ccc(Nc3ccnc(F)c3)nc21 [Example 23],0.011 ± 0.002,,0.038 ± 0.006,
Cn1c2ccncc2c2ccc(Nc3cccc(N4CCOCC4)c3)nc21 [Example 1],,,,Competition on AD brain section tau tangles (1 μM RefA vs. 250 μM compound) [3]: 84%; Selectivity (tau/Abeta) [3]: ~2.6 fold; Competition on AD brain section Aβ plaques (1 μM Compound B vs 250 μM compound) [4]: 32%; Direct staining of tau tangles/Aβ plaques on AD brain sections at 100 μM [2]: −; Ki (AD brain-enriched PHF): 0.078 µM
